# In publication PMC12291464, “Modifying Antifungal Peptides as Safe Food Preservatives” (Journal of Agricultural and Food Chemistry, 2025):
# Like-named read-outs stand apart in the source and are kept apart here. Residues, ends and D or L forms follow the SMILES beside them.
# Key:
# MRSA = tested on: MRSA
# Protocol: (§1) A1163 was grown on potato dextrose agar (PDA) medium at 37 °C for 5 days, and then the conidia were scraped and suspended in PBS with 0.025% (v/v) Tween 20, counted using a hemocytometer, and kept at 4 °C. isolated from peanuts and Pe21 (both kindly provided by Dr. Edward Sionov, ARO, Israel) were grown on PDA medium at 25 °C for 5 days, and then the conidia were scraped and suspended in PBS with 0.025% Tween 20 and kept at 4 °C. RP and methicillin-resistant (MRSA) were grown on LB agar plates, and individual colonies were picked and grown in Mueller–Hinton (MH) broth overnight at 37 °C. was grown on PDA medium at 30 °C, and individual colonies were picked and grown in yeast extract peptone dextrose (YPD) media overnight at 30 °C. All fungal and bacteria strains were maintained at −80 °C in 50% (v/v) glycerol stock.
# (§2) For filamentous fungi strains, serial dilutions of 100 μL ranged from 100 to 0.78 μM for each peptide in a 96 well plate using RPMI1640 with 165 μM MOPS. A total of 80 μL of inoculum was suspended with a conidia load of 5 × 10^3 CFU/mL (final density of 2 × 10^3 CFU/mL), and 20 μL of resazurin was diluted in RPMI1640 solution of 0.02% [final concentration of 0.0002% (w/v)]. In the control, 100 μL of treatment was replaced by the same volume with medium, while the negative control was 180 μL of the medium and 20 μL of resazurin solution. Plates were incubated at 37 °C for and 25 °C for and for 24 h. The results were quantified by measuring absorbance at 570 nm with a microplate reader (Tecan). The mean absorbance values were used in subsequent calculations. The growth of resazurin reduction and growth inhibition was calculated using the following normalization: % growth=100−% reduction=abs of test agent−abs of untreated control/abs of reduced resazurin−abs of untreated control The MIC was defined as the lowest concentration of the peptide that inhibited fungal growth by 90%, allowing for only 10% of the normal growth. For bacterial and yeast strains studies, serial dilutions of 100 μL ranged from 100 to 0.78 μM for each peptide in a 96 well plate using MH media for bacteria and YPD for yeast. A total of 100 μL of the microbe in suitable media (5 × 10^5 CFU/mL) was inoculated in each well. In the untreated well (e.g., control), 100 μL of treatment was replaced by the same volume with medium, while in the negative control, media were only without microbes and peptides. After 24 h of incubation at 37 °C for bacteria and 30 °C for yeast, plates were read at 595 nm and MIC was defined as the lowest concentration of peptide that reduced the growth of the microbe to 10% growth.
# A. fumigatus = details: 24 h
# Protocol: as §1, §2
# A. Niger = details: 24 h
# Protocol: as §1, §2
# P. expansum = details: 24 h
# Protocol: as §1, §2
# E. coli = tested on: E. coli
# Protocol: as §1, §2
# [1] = MH media, 5 × 10^5 CFU/mL, 24 h at 37 °C, read at 595 nm, MIC = growth reduced to 10%, average ± SE, 3 biological repeats in triplicates
# [2] = RPMI1640 with MOPS, resazurin, absorbance 570 nm, MIC = lowest concentration inhibiting growth by 90%, average ± SE, 3 biological repeats in triplicates
Compound,"MIC Values, MRSA (MRSA; [1])","MIC Values, A. fumigatus (A. fumigatus; [2])","MIC Values, A. Niger (A. Niger; [2])","MIC Values, P. expansum (P. expansum; [2])","MIC Values, E. coli (E. coli; [1])","MIC Values, MRSA (MRSA; 24 h)","MIC Values, A. fumigatus (A. fumigatus)","MIC Values, A. Niger (A. Niger)","MIC Values, P. expansum (P. expansum)","MIC Values, E. coli (E. coli; 24 h)"
CC[C@H](C)[C@H](NC(=O)[C@H](CCCCN)NC(=O)[C@H](CCCCN)NC(=O)[C@H](Cc1ccccc1)NC(=O)[C@H](CC(C)C)NC(=O)[C@H](CCCCN)NC(=O)[C@@H](N)CC(C)C)C(=O)N[C@@H](CC(C)C)C(=O)N[C@@H](CCCCN)C(=O)N[C@@H](Cc1ccc(O)cc1)C(=O)N[C@@H](CC(C)C)C(N)=O [BP100 L1K],3 ± 0 µM,13 ± 0 µM,33 ± 8 µM,8 ± 2 µM,3 ± 1 µM,–,–,–,–,–
"C[C@H](N)C(=O)N[C@@H](CCCCN)C(=O)N[C@@H](CCCNC(=N)N)C(=O)N[C@@H](Cc1c[nH]cn1)C(=O)N[C@@H](Cc1c[nH]cn1)C(=O)NCC(=O)N[C@@H](Cc1ccc(O)cc1)C(=O)N[C@@H](CCCCN)C(=O)N[C@@H](CCCNC(=N)N)C(=O)N[C@@H](CCCCN)C(=O)N[C@@H](Cc1ccccc1)C(=O)N[C@@H](Cc1c[nH]cn1)C(N)=O [P-113, reference compound] (H-AKRHHGYKRKFH-NH2)",–,–,–,–,–,>200 µM,21 ± 4 µM,14 ± 2 µM,>200 µM,>200 µM
C[C@H](N)C(=O)N[C@@H](CCCCN)C(=O)N[C@@H](CCCNC(=N)N)C(=O)N[C@@H](Cc1c[nH]cn1)C(=O)N[C@@H](Cc1c[nH]cn1)C(=O)NCC(=O)N[C@@H](Cc1ccc(O)cc1)C(=O)N[C@@H](CCCCN)C(=O)N[C@@H](CCCNC(=N)N)C(=O)N[C@@H](CCCCN)C(=O)N[C@@H](Cc1ccccc1)C(=O)N[C@@H](CCCCN)C(N)=O [P-113 H12K] (H-AKRHHGYKRKFK-NH2),>200 µM,4 ± 1 µM,17 ± 4 µM,>200 µM,>200 µM,–,–,–,–,–
C[C@H](N)C(=O)N[C@@H](CCCCN)C(=O)N[C@@H](CCCNC(=N)N)C(=O)N[C@@H](Cc1c[nH]cn1)C(=O)N[C@@H](Cc1c[nH]cn1)C(=O)NCC(=O)N[C@@H](Cc1ccc(O)cc1)C(=O)N[C@@H](CCCCN)C(=O)N[C@@H](CCCNC(=N)N)C(=O)N[C@@H](CCCCN)C(=O)N[C@@H](Cc1ccccc1)C(=O)N[C@@H](Cc1c[nH]cn1)C(=O)N[C@@H](C)C(=O)N[C@@H](CCCCN)C(=O)N[C@@H](CCCNC(=N)N)C(=O)N[C@@H](Cc1c[nH]cn1)C(=O)N[C@@H](Cc1c[nH]cn1)C(=O)NCC(=O)N[C@@H](Cc1ccc(O)cc1)C(=O)N[C@@H](CCCCN)C(=O)N[C@@H](CCCNC(=N)N)C(=O)N[C@@H](CCCCN)C(=O)N[C@@H](Cc1ccccc1)C(=O)N[C@@H](Cc1c[nH]cn1)C(N)=O [P-113 Double] (H-AKRHHGYKRKFHAKRHHGYKRKFH-NH2),>200 µM,15 ± 5 µM,5 ± 1 µM,9 ± 3 µM,>200 µM,–,–,–,–,–
C[C@H](N)C(=O)N[C@@H](CCCCN)C(=O)N[C@@H](CCCNC(=N)N)C(=O)N[C@@H](CCCCN)C(=O)N[C@@H](Cc1c[nH]cn1)C(=O)NCC(=O)N[C@@H](Cc1ccc(O)cc1)C(=O)N[C@@H](CCCCN)C(=O)N[C@@H](CCCNC(=N)N)C(=O)N[C@@H](CCCCN)C(=O)N[C@@H](Cc1ccccc1)C(=O)N[C@@H](Cc1c[nH]cn1)C(N)=O [P-113 H4K] (H-AKRKHGYKRKFH-NH2),–,–,–,–,–,>200 µM,33 ± 8 µM,14 ± 2 µM,>200 µM,>200 µM
